Paper PMC2799665

Assay: End-to-end contact formation (no covalent bond): MR121 oxazine dye fluorescence quenched by C-terminal Trp through van der Waals contact/stacking; ns-resolved FCS; single-exponential fit over 6-300 ns with two-state model
Conditions: the molecule shown is the open-chain precursor; water (aqueous solution); 20.0 °C

| Compound | end-to-end contact formation time constant (ns (closing time constant tau+ = 1/k+)) |
| --- | --- |
| CCN1CCCc2cc3c(cc21)Oc1cc2c(cc1=N3)CCC[N+]=2CCCC(=O)NCC(=O)N[C@@H](CO)C(=O)NCC(=O)N[C@@H](CO)C(=O)NCC(=O)N[C@@H](CO)C(=O)NCC(=O)N[C@@H](CO)C(=O)NCC(=O)N[C@@H](CO)C(=O)N[C@@H](Cc1c[nH]c2ccccc12)C(=O)[O-] [MR121-Gly-Ser-Gly-Ser-Gly-Ser-Gly-Ser-Gly-Ser-Trp-O-] | 20.5 |
| CCN1CCCc2cc3c(cc21)Oc1cc2c(cc1=N3)CCC[N+]=2CCCC(=O)NCC(=O)N[C@@H](CO)C(=O)NCC(=O)N[C@@H](CO)C(=O)NCC(=O)N[C@@H](CO)C(=O)NCC(=O)N[C@@H](CO)C(=O)NCC(=O)N[C@@H](CO)C(=O)NCC(=O)N[C@@H](CO)C(=O)NCC(=O)N[C@@H](CO)C(=O)NCC(=O)N[C@@H](CO)C(=O)NCC(=O)N[C@@H](CO)C(=O)NCC(=O)N[C@@H](CO)C(=O)NCC(=O)N[C@@H](CO)C(=O)NCC(=O)N[C@@H](CO)C(=O)N[C@@H](Cc1c[nH]c2ccccc12)C(=O)[O-] | 68.4 |
| CCN1CCCc2cc3c(cc21)Oc1cc2c(cc1=N3)CCC[N+]=2CCCC(=O)NCC(=O)N[C@@H](CO)C(=O)NCC(=O)N[C@@H](CO)C(=O)NCC(=O)N[C@@H](CO)C(=O)NCC(=O)N[C@@H](CO)C(=O)NCC(=O)N[C@@H](CO)C(=O)NCC(=O)N[C@@H](CO)C(=O)NCC(=O)N[C@@H](CO)C(=O)NCC(=O)N[C@@H](CO)C(=O)NCC(=O)N[C@@H](CO)C(=O)N[C@@H](Cc1c[nH]c2ccccc12)C(=O)[O-] | 48.9 |
| CCN1CCCc2cc3c(cc21)Oc1cc2c(cc1=N3)CCC[N+]=2CCCC(=O)NCC(=O)N[C@@H](CO)C(=O)NCC(=O)N[C@@H](CO)C(=O)NCC(=O)N[C@@H](CO)C(=O)NCC(=O)N[C@@H](CO)C(=O)NCC(=O)N[C@@H](CO)C(=O)NCC(=O)N[C@@H](CO)C(=O)NCC(=O)N[C@@H](CO)C(=O)NCC(=O)N[C@@H](CO)C(=O)NCC(=O)N[C@@H](CO)C(=O)NCC(=O)N[C@@H](CO)C(=O)NCC(=O)N[C@@H](CO)C(=O)NCC(=O)N[C@@H](CO)C(=O)NCC(=O)N[C@@H](CO)C(=O)NCC(=O)N[C@@H](CO)C(=O)NCC(=O)N[C@@H](CO)C(=O)N[C@@H](Cc1c[nH]c2ccccc12)C(=O)[O-] | 103 |
| CCN1CCCc2cc3c(cc21)Oc1cc2c(cc1=N3)CCC[N+]=2CCCC(=O)NCC(=O)N[C@@H](CO)C(=O)NCC(=O)N[C@@H](CO)C(=O)NCC(=O)N[C@@H](CO)C(=O)NCC(=O)N[C@@H](CO)C(=O)NCC(=O)N[C@@H](CO)C(=O)NCC(=O)N[C@@H](CO)C(=O)NCC(=O)N[C@@H](CO)C(=O)N[C@@H](Cc1c[nH]c2ccccc12)C(=O)[O-] | 32.7 |
| CCN1CCCc2cc3c(cc21)Oc1cc2c(cc1=N3)CCC[N+]=2CCCC(=O)NCC(=O)N[C@@H](CO)C(=O)NCC(=O)N[C@@H](CO)C(=O)N[C@@H](Cc1c[nH]c2ccccc12)C(=O)[O-] [MR121-Gly-Ser-Gly-Ser-Trp-O-] | 14.6 |
| CCN1CCCc2cc3c(cc21)Oc1cc2c(cc1=N3)CCC[N+]=2CCCC(=O)NCC(=O)N[C@@H](CO)C(=O)NCC(=O)N[C@@H](CO)C(=O)NCC(=O)N[C@@H](CO)C(=O)N[C@@H](Cc1c[nH]c2ccccc12)C(=O)[O-] [MR121-Gly-Ser-Gly-Ser-Gly-Ser-Trp-O-] | 17.6 |
